Common to all, as to type: cell-based
In series [1] the test system is human red blood cells (hRBC). The experiment in a line: Hemolysis. As to conditions: red cells of human, 1 h, 200. In a few lines: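 Washed fresh human RBC (20% v/v) incubated with peptide at 200 μg/mL for 1 h at 37° C with shaking. Supernatant OD540 measured after dilution, blank corrected; percent hemolysis = OD540 peptide / OD540 of 2% Triton X-100 lysis × 100, PBS with 10% water as 0%.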

The test system of series [2] is Klebsiella pneumoniae 968733. As to conditions: 968733. In a few lines:
(§1)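 CLSI broth microdilution: inoculum ~10^6 CFU/mL in cation-adjusted Mueller-Hinton II broth, with peptide in serial two-fold dilutions plus Polysorbate 80 (0.002% final). MIC (μg/mL) is the lowest concentration without visible growth after 18-20 hours at 35° C.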

Series [3] concerns Pseudomonas aeruginosa ATCC 27853. As to conditions: ATCC 27853. In short, it runs like this:
as §1

For series [4], the system named is Klebsiella pneumoniae SSI #3010. As to conditions: SSI #3010. In a few lines: as §1
Series [5] relates to Acinetobacter baumannii DSM 30008. As to conditions: DSM 30008. In a few lines: as §1
In a further series the test system is Escherichia coli 926415. As to conditions: 926415. In a few lines:
as §1

Series [6] deals with Enterobacter cloacae 848840. As to conditions: 848840. In short, it runs like this:
as §1

Series [7] concerns Acinetobacter baumannii 872842. As to conditions: 872842. In a few lines:
as §1

Series [8] deals with Escherichia coli ATCC 25922. As to conditions: ATCC 25922. In short, it runs like this: as §1

The structures appear in SMILES notation. In brackets after ≈: the same amount, converted by molar mass. Where a SMILES comes first, the peptide text is derived from it. Bridges are numbered along the chain shown (N, C = ends). Roman numbers before positions name the chains, in order. [ ]: non-standard residue; d: D form. Tle = CC(C)(C)[C@H](N)C(=O)O; dDab = NCC[C@@H](N)C(=O)O; Dab = NCC[C@H](N)C(=O)O; Dap = NC[C@H](N)C(=O)O

With `CC(=O)N[C@H](C(=O)N[C@H]1CCNC(=O)CC[C@@H](C(=O)N[C@@H](CO)C(N)=O)NC(=O)[C@H](C(C)C)NC(=O)[C@H](CO)NC(=O)[C@H](Cc2c[nH]c3ccccc23)NC(=O)[C@H](CO)NC(=O)[C@@H](CCN)NC(=O)[C@H](CCC(=O)N[C@@H](CCN)C(=O)N[C@H](C(=O)N[C@@H](CN)C(=O)N[C@H]2CCNC(=O)[C@H]([C@@H](C)O)NC(=O)[C@H](CCN)NC(=O)[C@H](CCN)NC(=O)[C@H](CC(C)C)NC(=O)[C@@H](CC(C)C)NC(=O)[C@H](CCN)NC2=O)[C@@H](C)O)NC(=O)[C@H](CN)NC(=O)[C@H](Cc2ccc(O)cc2)NC1=O)C(C)C` [Ex. 147] (I: Ac-V[Dab]Y[Dap]E[dDab]SWSVES-NH2 / II: [Dab]T[Dap][Dab][Dab][dL]L[Dab][Dab]T; lactam I:2-I:11, II:4-II:C; amide I:5-II:N), the “Hemolysis at 200 μg/mL” value in series [1] was under 1%. Besides, the MIC in series [2] turned out to be 0.5 µg/mL (≈ 0.209 µM); in [3], 0.125 µg/mL (≈ 0.0523 µM); in series [4] it was 0.0625 µg/mL (≈ 0.0261 µM); in series [5], 0.0625 µg/mL (≈ 0.0261 µM); in the series with Escherichia coli 926415, 0.25 µg/mL (≈ 0.105 µM); in series [6], 0.125 µg/mL (≈ 0.0523 µM). The figures for the MIC in series [7] and in series [8] were 0.25 µg/mL (≈ 0.105 µM) and 0.0625 µg/mL (≈ 0.0261 µM), respectively.

Turning to `CC(=O)N[C@H](C(=O)N[C@H]1CCNC(=O)C[C@@H](C(=O)N[C@@H](CO)C(N)=O)NC(=O)[C@H](C(C)(C)C)NC(=O)[C@H](CO)NC(=O)[C@H](Cc2c[nH]c3ccccc23)NC(=O)[C@H](CO)NC(=O)[C@@H](CCN)NC(=O)[C@H](CCC(=O)N[C@@H](CCN)C(=O)N[C@H](C(=O)N[C@@H](CN)C(=O)N[C@H]2CCNC(=O)[C@H]([C@@H](C)O)NC(=O)[C@H](CCN)NC(=O)[C@H](CCN)NC(=O)[C@H](CC(C)C)NC(=O)[C@@H](CC(C)C)NC(=O)[C@H](CCN)NC2=O)[C@@H](C)O)NC(=O)[C@H](CN)NC(=O)[C@H](Cc2ccc(O)cc2)NC1=O)C(C)C` [Ex. 148] (I: Ac-V[Dab]Y[Dap]E[dDab]SWS[Tle]DS-NH2 / II: [Dab]T[Dap][Dab][Dab][dL]L[Dab][Dab]T; lactam I:2-I:11, II:4-II:C; amide I:5-II:N), the “Hemolysis at 200 μg/mL” value in series [1] is listed as under 1%. Besides, the minimum inhibitory concentration (MIC) in series [2] is 0.25 µg/mL (≈ 0.105 µM); in series [3] it was 0.125 µg/mL (≈ 0.0523 µM); in series [4], 0.0625 µg/mL (≈ 0.0261 µM); in series [5], 0.03125 µg/mL (≈ 0.0131 µM); against Escherichia coli 926415, 0.125 µg/mL (≈ 0.0523 µM); in [6], 0.0625 µg/mL (≈ 0.0261 µM). Also, the MIC in series [7] came out at 0.0625 µg/mL (≈ 0.0261 µM); in series [8], 0.03125 µg/mL (≈ 0.0131 µM).

Consider `CC(=O)N[C@H](C(=O)N[C@H]1CCNC(=O)C[C@@H](C(=O)N[C@@H](CO)C(N)=O)NC(=O)[C@H](C(C)C)NC(=O)[C@H](CO)NC(=O)[C@H](Cc2c[nH]c3ccccc23)NC(=O)[C@H](CO)NC(=O)[C@@H](CCN)NC(=O)[C@H](CCC(=O)N[C@@H](CCN)C(=O)N[C@H](C(=O)N[C@@H](CN)C(=O)N[C@H]2CCNC(=O)[C@H]([C@@H](C)O)NC(=O)[C@H](CCN)NC(=O)[C@H](CCN)NC(=O)[C@H](CC(C)C)NC(=O)[C@@H](CC(C)C)NC(=O)[C@H](CCN)NC2=O)[C@@H](C)O)NC(=O)[C@H](CN)NC(=O)[C@H](Cc2ccc(O)cc2)NC1=O)C(C)C` [Ex. 149] (I: Ac-V[Dab]Y[Dap]E[dDab]SWSVDS-NH2 / II: [Dab]T[Dap][Dab][Dab][dL]L[Dab][Dab]T; lactam I:2-I:11, II:4-II:C; amide I:5-II:N), for which the “Hemolysis at 200 μg/mL” value in series [1] is under 1%. The MIC in [2] is 0.5 µg/mL (≈ 0.21 µM); in series [3] it was 0.125 µg/mL (≈ 0.0526 µM); in [4], 0.125 µg/mL (≈ 0.0526 µM); in series [5], 0.0625 µg/mL (≈ 0.0263 µM); against Escherichia coli 926415 it was 0.25 µg/mL (≈ 0.105 µM); in series [6], 0.125 µg/mL (≈ 0.0526 µM). For the same molecule, the MIC in series [7] was 0.125 µg/mL (≈ 0.0526 µM); in series [8] it was 0.0625 µg/mL (≈ 0.0263 µM).

Turning to `CC(=O)N[C@H](C(=O)N[C@H]1CSSC[C@@H](C(=O)N[C@@H](CO)C(N)=O)NC(=O)[C@H](C(C)C)NC(=O)[C@H](CCC(=O)O)NC(=O)[C@H](Cc2c[nH]c3ccccc23)NC(=O)[C@H](CO)NC(=O)[C@@H](CCN)NC(=O)[C@H](CCC(=O)N[C@@H](CCN)C(=O)N[C@H](C(=O)N[C@@H](CN)C(=O)N[C@H]2CCNC(=O)[C@H]([C@@H](C)O)NC(=O)[C@H](CCN)NC(=O)[C@H](CCN)NC(=O)[C@H](CC(C)C)NC(=O)[C@@H](CC(C)C)NC(=O)[C@H](CCN)NC2=O)[C@@H](C)O)NC(=O)[C@H](CCCCN)NC(=O)[C@H](Cc2ccc(O)cc2)NC1=O)C(C)C` [Ex. 151] (I: Ac-VCYKE[dDab]SWEVCS-NH2 / II: [Dab]T[Dap][Dab][Dab][dL]L[Dab][Dab]T; disulfide I:2-I:11; amide I:5-II:N; lactam II:4-II:C), the “Hemolysis at 200 μg/mL” value in series [1] was under 1%. Also, the MIC in [2] worked out at 1 µg/mL (≈ 0.405 µM); in series [3] it was 0.125 µg/mL (≈ 0.0506 µM); in series [4], 0.0625 µg/mL (≈ 0.0253 µM); in series [5], 0.0625 µg/mL (≈ 0.0253 µM); in the series on Escherichia coli 926415, 0.5 µg/mL (≈ 0.203 µM); in series [6], 0.125 µg/mL (≈ 0.0506 µM). Also, the MIC in series [7] was determined as 0.25 µg/mL (≈ 0.101 µM); in series [8] it was 0.03125 µg/mL (≈ 0.0127 µM).

As for `CC(=O)N[C@H](C(=O)N[C@H]1CSSC[C@@H](C(=O)N[C@@H](CO)C(N)=O)NC(=O)[C@H](C(C)C)NC(=O)[C@H](CC(=O)O)NC(=O)[C@H](Cc2c[nH]c3ccccc23)NC(=O)[C@H](CO)NC(=O)[C@@H](CCN)NC(=O)[C@H](CCC(=O)N[C@@H](CCN)C(=O)N[C@H](C(=O)N[C@@H](CN)C(=O)N[C@H]2CCNC(=O)[C@H]([C@@H](C)O)NC(=O)[C@H](CCN)NC(=O)[C@H](CCN)NC(=O)[C@H](CC(C)C)NC(=O)[C@@H](CC(C)C)NC(=O)[C@H](CCN)NC2=O)[C@@H](C)O)NC(=O)[C@H](CCCCN)NC(=O)[C@H](Cc2ccc(O)cc2)NC1=O)C(C)C` [Ex. 152] (I: Ac-VCYKE[dDab]SWDVCS-NH2 / II: [Dab]T[Dap][Dab][Dab][dL]L[Dab][Dab]T; disulfide I:2-I:11; amide I:5-II:N; lactam II:4-II:C), the “Hemolysis at 200 μg/mL” value in [1] was under 1%. Also, the MIC stood at 8 µg/mL (≈ 3.26 µM) in [2]; 0.25 µg/mL (≈ 0.102 µM) in series [3]; 0.25 µg/mL (≈ 0.102 µM) in series [4]; 0.125 µg/mL (≈ 0.0509 µM) in series [5]; 2 µg/mL (≈ 0.815 µM) against Escherichia coli 926415; 0.5 µg/mL (≈ 0.204 µM) in series [6]. The MIC in [7] is 1 µg/mL (≈ 0.407 µM); in series [8], 0.125 µg/mL (≈ 0.0509 µM).

On to `CC(=O)N[C@H](C(=O)N[C@H]1CSSC[C@@H](C(=O)N[C@@H](CO)C(N)=O)NC(=O)[C@H](C(C)C)NC(=O)[C@H](CCC(=O)O)NC(=O)[C@H](Cc2c[nH]c3ccccc23)NC(=O)[C@H](CCN)NC(=O)[C@@H](CCN)NC(=O)[C@H](CCC(=O)N[C@@H](CCN)C(=O)N[C@H](C(=O)N[C@@H](CN)C(=O)N[C@H]2CCNC(=O)[C@H]([C@@H](C)O)NC(=O)[C@H](CCN)NC(=O)[C@H](CCN)NC(=O)[C@H](CC(C)C)NC(=O)[C@@H](CC(C)C)NC(=O)[C@H](CCN)NC2=O)[C@@H](C)O)NC(=O)[C@H](CCN)NC(=O)[C@H](Cc2ccc(O)cc2)NC1=O)C(C)C` [Ex. 153] (I: Ac-VCY[Dab]E[dDab][Dab]WEVCS-NH2 / II: [Dab]T[Dap][Dab][Dab][dL]L[Dab][Dab]T; disulfide I:2-I:11; amide I:5-II:N; lactam II:4-II:C), for which, in series [1], the “Hemolysis at 200 μg/mL” value is under 1%. Also, the MIC in series [2] worked out at 0.25 µg/mL (≈ 0.102 µM); in series [3] it was 0.125 µg/mL (≈ 0.0509 µM); in [4] it was 0.0625 µg/mL (≈ 0.0255 µM); in series [5] it was 0.03125 µg/mL (≈ 0.0127 µM); in the series with Escherichia coli 926415 it was 0.125 µg/mL (≈ 0.0509 µM); in series [6], 0.125 µg/mL (≈ 0.0509 µM). The MIC in series [7] and in series [8] was 0.0625 µg/mL (≈ 0.0255 µM) throughout.

Consider `CC(=O)N[C@H](C(=O)N[C@H]1CSSC[C@@H](C(=O)N[C@@H](CO)C(N)=O)NC(=O)[C@H](C(C)(C)C)NC(=O)[C@H](CCC(=O)O)NC(=O)[C@H](Cc2c[nH]c3ccccc23)NC(=O)[C@H](CO)NC(=O)[C@@H](CCN)NC(=O)[C@H](CCC(=O)N[C@@H](CCN)C(=O)N[C@H](C(=O)N[C@@H](CN)C(=O)N[C@H]2CCNC(=O)[C@H]([C@@H](C)O)NC(=O)[C@H](CCN)NC(=O)[C@H](CCN)NC(=O)[C@H](CC(C)C)NC(=O)[C@@H](CC(C)C)NC(=O)[C@H](CCN)NC2=O)[C@@H](C)O)NC(=O)[C@H](CCN)NC(=O)[C@H](Cc2ccc(O)cc2)NC1=O)C(C)C` [Ex. 154] (I: Ac-VCY[Dab]E[dDab]SWE[Tle]CS-NH2 / II: [Dab]T[Dap][Dab][Dab][dL]L[Dab][Dab]T; disulfide I:2-I:11; amide I:5-II:N; lactam II:4-II:C), for which the “Hemolysis at 200 μg/mL” value in series [1] is under 1%. The MIC in series [2] came to 0.25 µg/mL (≈ 0.102 µM); in series [3] it was 0.125 µg/mL (≈ 0.0509 µM); in series [4], 0.0625 µg/mL (≈ 0.0255 µM); in series [5] it was 0.01562 µg/mL (≈ 0.00636 µM); in the series on Escherichia coli 926415, 0.125 µg/mL (≈ 0.0509 µM); in series [6] it was 0.125 µg/mL (≈ 0.0509 µM). Further, the MIC turned out to be 0.0625 µg/mL (≈ 0.0255 µM) in series [7] and 0.03125 µg/mL (≈ 0.0127 µM) in [8].

Source of the values: US11629171B2, “Beta-hairpin peptidomimetics” (POLYPHOR AG, priority 2017, dated 2023).
